Experiment: Solubility of CoQ10 in fish oil and fish oil concentrates under different conditions and time of storage
Type: physicochemical
Conditions: for Solubility of CoQ10 in 1812TG, confirmed solubility / Solubility of CoQ10 in 4020EE, confirmed solubility: heating prior storage
Description: CoQ10 was solubilized in 0355 EE (fish oil concentrate in ethylester form containing 3% EPA and 55% DHA), 4020EE (fish oil concentrate in ethylester form containing 40% EPA and 20% DHA) and 1812TG (purified fish oil containing 18% EPA and 12% of DHA) and the final solubility was examined under different conditions and time of storage. All of these starting oils were manufactured by Ocean Nutrition Canada, Mulgrave, NS).

Solubility of CoQ10 in 0355EE, confirmed solubility (0355EE (ethylester concentrate, 3% EPA, 55% DHA), solubility at RT, no heating prior storage): 6.6 %, w/w
Solubility of CoQ10 in 0355EE, confirmed solubility (0355EE, solubility at 50° C.): 27%, w/w
Solubility of CoQ10 in 0355EE, confirmed solubility (0355EE, storage at 4° C. (line after solubility at 50° C.)): 3.2%, w/w
Solubility of CoQ10 in 0355EE, confirmed solubility (0355EE, storage at 4° C. for 24 h, no heating prior storage): 2.5 %, w/w
Solubility of CoQ10 in 1812TG, confirmed solubility (1812TG (purified fish oil, 18% EPA, 12% DHA), solubility at 50° C.): 11 %, w/w
Solubility of CoQ10 in 1812TG, confirmed solubility (1812TG, storage at 4° C.): <2.9 %, w/w
Solubility of CoQ10 in 4020EE, confirmed solubility (4020EE (ethylester concentrate, 40% EPA, 20% DHA), solubility at 50° C.): 9 %, w/w
Solubility of CoQ10 in 4020EE, confirmed solubility (4020EE, storage at 4° C.): 5.7 %, w/w
Structure (SMILES): COC1=C(OC)C(=O)C(C/C=C(\C)CC/C=C(\C)CC/C=C(\C)CC/C=C(\C)CC/C=C(\C)CC/C=C(\C)CC/C=C(\C)CC/C=C(\C)CC/C=C(\C)CCC=C(C)C)=C(C)C1=O [CoQ10ox, 2,3-dimethyoxy-5-methyl-6-decaprenyl-1,4-benzoquinone]

Source: patent US20080139649A1, “Fatty Acid-Benzenediol Derivatives and Methods of Making and Using Thereof” (priority 2005, published 2008)
